Active and inactive are the calls of the source.
Experiments:
[1] = Luminescence Cell-Based Dose Retest to Confirm Inhibitors of Cancer Stem Cells. [Related pubchem assays (depositor defined):AID2717, AID2721]; type: functional; conditions: Homo sapiens
[2] = biological target: Disintegrin and metalloproteinase domain-containing protein 17 (Homo sapiens, UniProt P78536); experiment: exosite inhibitors of ADAM17, dose response, biochemical (AID 743260)
[3] = inhibition of ADAM10 peptide cleavage – biochemical, FRET peptide substrate, recombinant human ADAM10, selectivity assay for ADAM17 exosite inhibitor project, dose response (AID 743259);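 also: ADAM10 enzyme cleaving a FRET peptide substrate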
[4] = HPDE-C7 pancreatic duct cell viability loss – fluorescence, HTS (AID 430); type: functional, cell-based; conditions: Homo sapiens
[5] = viability loss of HPDE-C7K cells – cell-based, fluorescence, HTS, primary screen (AID 431); type: functional; conditions: Homo sapiens
[6] = viability of PTEN-deleted HCT116 cells – cell-based, HCT116 PTEN knockout, dose response (AID 1047); type: functional;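 also: HCT116 colon tumor cells with PTEN knocked out; cells exposed to compound for 60 hours before readout; potency for loss of cell viability measured by luminescence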
[7] = viability of HCT116 lacking mutant beta-catenin – cell-based, human colon tumor, dose response (AID 1045); type: functional;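 also: HCT116 colon tumor cells with beta catenin knocked out; cells exposed to compound for 60 hours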
[8] = biological target: FAD-linked sulfhydryl oxidase ALR (Homo sapiens, UniProt P55789); experiment: ALR-catalysed DTT oxidation blockers – biochemical, H2O2 detection, luminescence, cherry-pick, dose response (AID 493248)
[9] = viability of uninfected HEp-2 cells – cell-based, HTS, cytotoxicity control for RSV inhibitor project, dose response (AID 2410); type: functional; conditions: human respiratory syncytial virus
Coagulation factor XII = biological target: T1, Coagulation factor XII (Homo sapiens, UniProt P00748); type: functional;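 also: activated factor XIIa alpha cleaving a fluorogenic AMC peptide substrate; inhibitor potency from loss of enzyme activity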
T1 sequence (P00748 whole entry): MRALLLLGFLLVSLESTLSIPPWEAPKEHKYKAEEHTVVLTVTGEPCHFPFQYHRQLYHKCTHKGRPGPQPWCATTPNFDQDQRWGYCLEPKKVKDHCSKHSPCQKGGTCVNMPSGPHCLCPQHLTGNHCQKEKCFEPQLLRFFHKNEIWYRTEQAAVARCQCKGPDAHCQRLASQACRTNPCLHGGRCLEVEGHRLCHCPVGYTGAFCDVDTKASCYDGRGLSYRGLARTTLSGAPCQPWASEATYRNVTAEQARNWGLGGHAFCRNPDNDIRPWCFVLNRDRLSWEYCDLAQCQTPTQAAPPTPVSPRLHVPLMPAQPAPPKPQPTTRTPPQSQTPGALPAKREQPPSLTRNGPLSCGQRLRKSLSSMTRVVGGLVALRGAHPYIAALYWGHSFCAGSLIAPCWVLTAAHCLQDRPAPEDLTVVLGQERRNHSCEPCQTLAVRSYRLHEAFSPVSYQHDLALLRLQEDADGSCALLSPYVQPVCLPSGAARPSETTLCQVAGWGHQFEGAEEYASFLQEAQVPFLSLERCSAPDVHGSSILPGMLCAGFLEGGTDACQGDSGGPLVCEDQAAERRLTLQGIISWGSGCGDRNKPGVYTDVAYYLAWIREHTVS

Estrogen receptor beta = Estrogen receptor beta (Homo sapiens, UniProt Q92731);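 also: recombinant ER-beta bound to coactivator SRC1 peptide in presence of estradiol agonist; inhibitors block coactivator peptide binding and lower the FRET signal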
Cytochrome P450 3A4 = Cytochrome P450 3A4 (Homo sapiens, UniProt P08684);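 also: CYP3A4 tested as one member of a cytochrome P450 panel screen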
[10] = biological target: T2, Histone-lysine N-methyltransferase NSD2 (Homo sapiens, UniProt O96028); type: biochemical
T2 sequence (O96028 whole entry): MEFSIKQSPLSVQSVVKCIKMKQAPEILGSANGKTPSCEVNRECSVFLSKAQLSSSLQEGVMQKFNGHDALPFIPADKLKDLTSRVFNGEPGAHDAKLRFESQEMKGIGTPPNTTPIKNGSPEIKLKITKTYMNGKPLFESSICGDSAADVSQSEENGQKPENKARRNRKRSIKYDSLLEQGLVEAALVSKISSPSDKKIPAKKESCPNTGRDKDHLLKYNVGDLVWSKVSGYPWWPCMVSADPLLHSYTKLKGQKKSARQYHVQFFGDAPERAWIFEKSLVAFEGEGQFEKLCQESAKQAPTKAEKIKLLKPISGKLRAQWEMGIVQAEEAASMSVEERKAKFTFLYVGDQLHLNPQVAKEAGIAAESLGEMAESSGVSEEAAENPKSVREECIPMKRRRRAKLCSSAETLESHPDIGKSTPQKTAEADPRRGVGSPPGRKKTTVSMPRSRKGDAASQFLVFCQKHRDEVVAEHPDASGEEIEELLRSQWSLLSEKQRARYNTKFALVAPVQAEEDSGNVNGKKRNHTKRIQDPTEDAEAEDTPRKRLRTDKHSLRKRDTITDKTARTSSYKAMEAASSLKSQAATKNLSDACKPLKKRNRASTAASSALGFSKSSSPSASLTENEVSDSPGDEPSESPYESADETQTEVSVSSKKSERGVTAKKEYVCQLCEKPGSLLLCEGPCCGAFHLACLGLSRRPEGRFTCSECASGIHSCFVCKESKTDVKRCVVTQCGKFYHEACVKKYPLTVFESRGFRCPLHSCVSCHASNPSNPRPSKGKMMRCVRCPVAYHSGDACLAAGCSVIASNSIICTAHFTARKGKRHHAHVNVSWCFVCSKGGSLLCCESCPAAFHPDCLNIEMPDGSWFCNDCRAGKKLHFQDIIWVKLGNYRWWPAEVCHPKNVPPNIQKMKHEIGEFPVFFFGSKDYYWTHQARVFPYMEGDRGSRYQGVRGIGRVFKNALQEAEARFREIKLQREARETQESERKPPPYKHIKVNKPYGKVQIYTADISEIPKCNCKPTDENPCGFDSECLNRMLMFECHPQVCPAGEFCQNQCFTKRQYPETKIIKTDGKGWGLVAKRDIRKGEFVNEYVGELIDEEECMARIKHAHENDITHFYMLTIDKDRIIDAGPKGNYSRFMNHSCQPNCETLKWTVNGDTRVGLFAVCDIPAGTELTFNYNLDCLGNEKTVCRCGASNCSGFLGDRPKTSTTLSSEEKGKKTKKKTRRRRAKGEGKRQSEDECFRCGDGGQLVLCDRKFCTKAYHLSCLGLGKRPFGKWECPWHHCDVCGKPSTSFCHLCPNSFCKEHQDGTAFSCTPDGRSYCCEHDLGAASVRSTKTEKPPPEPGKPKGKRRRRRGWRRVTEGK

[11] = Luminescence Cell-Based Dose Response to Identify Activators of 5'UTR Stem-Loop Driven Prion Protein mRNA Translation in H4-C Neuroglioblastoma Cells. [Related pubchem assays: 1829 (Project Summary), 1814 (Primary HTS)]; type: functional
[12] = Luminescence Cell-Based Dose Confirmation HTS to Identify Activators of 5'UTR Stem-Loop Driven Alpha-Synuclein mRNA Translation in H4 Neuroglioblastoma Cells. [Related pubchem assays: 1829 (Project Summary), 1814 (Primary HTS)]; type: functional
[13] = Luminescence Cell-Based Dose Response HTS to Identify Activators of Luciferase Translation or Activity in H4 […] Cells. [Related pubchem assays: 1829 (Project Summary), 1814 (Primary HTS)]; type: functional
H4 = experiment: Luminescence Cell-Based Dose Response HTS to Identify Activators of 5'UTR Stem-Loop Driven Prion Protein mRNA Translation in H4 Neuroglioblastoma Cells. [Related pubchem assays: 1829 (Project Summary), 1814 (Primary HTS)]; type: functional; conditions: Homo sapiens
[14] = Luminescence Cell-Based Dose Response to Identify Activators of Luciferase Translation or Activity in H4-C Neuroglioblastoma Cells. [Related pubchem assays: 1829 (Project Summary), 1814 (Primary HTS)]; type: functional
[15] = Luminescence Cell-Based Dose Confirmation to Identify Activators of 5'UTR Stem-Loop Driven Alpha-Synuclein mRNA Translation in H4 Neuroglioblastoma Cells. [Related pubchem assays: 1829 (Project Summary), 1814 (Primary HTS)]; type: functional
[16] = biological target: T3, Voltage-gated N-type calcium channel alpha-1B subunit/Amyloid beta A4 precursor protein-binding family A member 1 (Homo sapiens, UniProt Q00975+Q02410); type: protein assay
[17] = biological target: T3, Voltage-gated N-type calcium channel alpha-1B subunit/Amyloid beta A4 precursor protein-binding family A member 1; type: protein assay; remark: listed apart in the source
[18] = biological target: DNA dC->dU-editing enzyme APOBEC-3G (Homo sapiens, UniProt Q9HC16); experiment: Dose Response confirmation of small molecule APOBEC3G DNA Deaminase Inhibitors via a fluorescence-based single-stranded DNA deaminase assay. [Related pubchem assays (depositor defined):AID493012, AID493028]; type: functional
[19] = biological target: Peroxisome proliferator-activated receptor gamma/Nuclear receptor coactivator 1 (Homo sapiens, UniProt P37231); experiment: TR-FRET dose response biochemical High Throughput Screening assay for agonists of the steroid receptor coactivator 1 (SRC-1) recruitment by the peroxisome proliferator-activated receptor gamma (PPAR gamma): non-selective agonists. [Related pubchem assays (depositor defined):AID1300, AID1808, AID504735, AID631]; type: protein assay
[20] = biological target: Peroxisome proliferator-activated receptor gamma/Nuclear receptor coactivator 3 (Homo sapiens, UniProt P37231); experiment: TR-FRET dose response biochemical High Throughput Screening assay for agonists of the steroid receptor coactivator 3 (SRC-3) recruitment by the peroxisome proliferator-activated receptor gamma (PPAR gamma): non-selective agonists. [Related pubchem assays: 1301 (Confirmation screen.), 1048 (Primary screen.)]; type: functional
[21] = biological target: Peroxisome proliferator-activated receptor gamma/Nuclear receptor coactivator 2 (Homo sapiens, UniProt P37231); experiment: TR-FRET dose response biochemical High Throughput Screening assay for agonists of the steroid receptor coactivator 2 (SRC-2) recruitment by the peroxisome proliferator-activated receptor gamma (PPAR gamma): non-selective agonists. [Related pubchem assays: 1297, 1032 ]; type: functional
[22] = biological target: T4, Polyadenylate-binding protein 1 (Homo sapiens, UniProt P11940); experiment: MLLE binding blockers, Cy5 peptide tracer – biochemical, fluorescence polarization, Cy5-PAM2 peptide, secondary, miRNA deadenylation inhibitor project, dose response (AID 602260); type: functional; conditions: read-out: IC50_Mean
[23] = biological target: T4, Polyadenylate-binding protein 1; experiment: MLLE domain peptide-binding blockers, IC50 – biochemical, fluorescence polarization, FITC-PAM2 peptide, dose response (AID 602259); type: functional; conditions: read-out: IC50_Mean

T3 sequence (Q00975 whole entry): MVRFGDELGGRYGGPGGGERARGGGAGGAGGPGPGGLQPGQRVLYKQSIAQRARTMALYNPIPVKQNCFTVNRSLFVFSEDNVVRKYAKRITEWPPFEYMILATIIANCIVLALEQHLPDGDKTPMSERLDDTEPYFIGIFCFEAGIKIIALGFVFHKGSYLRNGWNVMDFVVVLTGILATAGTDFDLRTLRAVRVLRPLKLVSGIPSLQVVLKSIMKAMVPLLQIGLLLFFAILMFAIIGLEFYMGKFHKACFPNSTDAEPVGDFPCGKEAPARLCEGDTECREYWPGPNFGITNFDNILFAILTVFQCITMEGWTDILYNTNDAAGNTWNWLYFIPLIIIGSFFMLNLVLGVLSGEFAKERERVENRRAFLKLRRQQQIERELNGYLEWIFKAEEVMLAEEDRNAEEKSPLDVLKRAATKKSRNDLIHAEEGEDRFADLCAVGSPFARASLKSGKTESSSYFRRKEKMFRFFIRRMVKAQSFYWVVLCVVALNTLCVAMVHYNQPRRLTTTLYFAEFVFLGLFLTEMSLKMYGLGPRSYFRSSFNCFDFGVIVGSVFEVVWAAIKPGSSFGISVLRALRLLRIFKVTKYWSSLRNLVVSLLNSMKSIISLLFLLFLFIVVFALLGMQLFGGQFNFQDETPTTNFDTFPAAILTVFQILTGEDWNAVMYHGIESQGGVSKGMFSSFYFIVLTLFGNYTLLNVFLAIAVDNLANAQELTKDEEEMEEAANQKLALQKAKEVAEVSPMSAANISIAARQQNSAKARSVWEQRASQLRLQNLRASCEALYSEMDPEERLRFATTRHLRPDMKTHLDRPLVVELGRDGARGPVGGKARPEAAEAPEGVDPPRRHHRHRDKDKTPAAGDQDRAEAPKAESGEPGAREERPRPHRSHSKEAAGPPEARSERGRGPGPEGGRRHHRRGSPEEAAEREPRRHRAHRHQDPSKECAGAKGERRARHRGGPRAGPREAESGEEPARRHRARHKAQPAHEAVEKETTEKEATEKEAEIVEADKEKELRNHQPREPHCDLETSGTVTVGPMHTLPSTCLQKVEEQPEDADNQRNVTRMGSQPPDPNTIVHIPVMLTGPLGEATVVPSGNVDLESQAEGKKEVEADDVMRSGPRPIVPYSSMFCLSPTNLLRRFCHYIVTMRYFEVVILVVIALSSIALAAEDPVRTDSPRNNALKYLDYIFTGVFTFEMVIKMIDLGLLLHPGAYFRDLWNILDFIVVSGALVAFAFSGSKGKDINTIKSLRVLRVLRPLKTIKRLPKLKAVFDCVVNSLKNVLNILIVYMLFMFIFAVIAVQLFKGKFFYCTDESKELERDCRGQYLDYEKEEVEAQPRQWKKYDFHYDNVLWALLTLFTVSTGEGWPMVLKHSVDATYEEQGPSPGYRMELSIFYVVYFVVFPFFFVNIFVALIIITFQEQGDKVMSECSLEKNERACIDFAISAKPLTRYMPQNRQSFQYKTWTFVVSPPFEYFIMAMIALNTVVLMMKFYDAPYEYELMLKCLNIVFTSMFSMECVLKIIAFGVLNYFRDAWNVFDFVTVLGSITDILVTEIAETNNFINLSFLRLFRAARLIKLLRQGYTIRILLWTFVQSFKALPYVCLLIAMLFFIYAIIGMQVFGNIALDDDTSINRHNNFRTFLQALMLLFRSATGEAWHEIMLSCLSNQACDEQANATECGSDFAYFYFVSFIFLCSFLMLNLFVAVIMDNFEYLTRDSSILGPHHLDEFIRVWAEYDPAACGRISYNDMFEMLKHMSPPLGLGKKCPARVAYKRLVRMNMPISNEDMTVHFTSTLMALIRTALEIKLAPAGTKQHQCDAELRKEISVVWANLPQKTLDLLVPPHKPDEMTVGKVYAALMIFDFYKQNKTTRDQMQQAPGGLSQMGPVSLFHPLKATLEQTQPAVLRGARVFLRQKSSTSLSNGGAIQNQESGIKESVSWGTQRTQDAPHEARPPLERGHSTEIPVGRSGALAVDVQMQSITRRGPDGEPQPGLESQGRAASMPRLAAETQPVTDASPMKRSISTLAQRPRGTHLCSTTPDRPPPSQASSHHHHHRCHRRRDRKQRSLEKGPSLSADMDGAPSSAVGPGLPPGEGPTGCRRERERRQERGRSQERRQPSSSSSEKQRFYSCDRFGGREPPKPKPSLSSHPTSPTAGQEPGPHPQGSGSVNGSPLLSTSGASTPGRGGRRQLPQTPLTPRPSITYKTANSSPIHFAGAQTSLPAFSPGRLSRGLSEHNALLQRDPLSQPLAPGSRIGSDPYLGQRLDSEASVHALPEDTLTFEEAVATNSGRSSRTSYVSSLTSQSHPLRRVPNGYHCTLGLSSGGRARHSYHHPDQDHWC
T3 sequence (Q02410 whole entry): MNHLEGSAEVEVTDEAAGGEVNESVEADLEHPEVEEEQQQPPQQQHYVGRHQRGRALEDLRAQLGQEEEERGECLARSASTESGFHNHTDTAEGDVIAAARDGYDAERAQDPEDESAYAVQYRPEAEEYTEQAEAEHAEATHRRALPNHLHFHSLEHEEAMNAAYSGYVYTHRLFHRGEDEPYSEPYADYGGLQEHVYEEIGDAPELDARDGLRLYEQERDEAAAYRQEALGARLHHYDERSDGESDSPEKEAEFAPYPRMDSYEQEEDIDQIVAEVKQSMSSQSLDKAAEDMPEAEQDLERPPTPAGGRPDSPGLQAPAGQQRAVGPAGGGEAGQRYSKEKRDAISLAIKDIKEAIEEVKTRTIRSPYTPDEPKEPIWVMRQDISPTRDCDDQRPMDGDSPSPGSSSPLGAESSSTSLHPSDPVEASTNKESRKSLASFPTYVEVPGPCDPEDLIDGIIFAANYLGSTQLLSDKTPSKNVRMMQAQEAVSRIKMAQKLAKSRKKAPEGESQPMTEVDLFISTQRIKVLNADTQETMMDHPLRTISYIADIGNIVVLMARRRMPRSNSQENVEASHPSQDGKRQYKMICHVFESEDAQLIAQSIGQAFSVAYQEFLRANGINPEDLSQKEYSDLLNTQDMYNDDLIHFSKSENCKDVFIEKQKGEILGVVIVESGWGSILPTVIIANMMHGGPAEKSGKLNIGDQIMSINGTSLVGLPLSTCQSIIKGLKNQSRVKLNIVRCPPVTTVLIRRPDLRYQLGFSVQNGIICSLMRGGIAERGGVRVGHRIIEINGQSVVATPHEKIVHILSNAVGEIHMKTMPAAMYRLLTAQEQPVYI
Disintegrin and metalloproteinase domain-containing protein 17, sequence (P78536 whole entry, the tested form may be a part): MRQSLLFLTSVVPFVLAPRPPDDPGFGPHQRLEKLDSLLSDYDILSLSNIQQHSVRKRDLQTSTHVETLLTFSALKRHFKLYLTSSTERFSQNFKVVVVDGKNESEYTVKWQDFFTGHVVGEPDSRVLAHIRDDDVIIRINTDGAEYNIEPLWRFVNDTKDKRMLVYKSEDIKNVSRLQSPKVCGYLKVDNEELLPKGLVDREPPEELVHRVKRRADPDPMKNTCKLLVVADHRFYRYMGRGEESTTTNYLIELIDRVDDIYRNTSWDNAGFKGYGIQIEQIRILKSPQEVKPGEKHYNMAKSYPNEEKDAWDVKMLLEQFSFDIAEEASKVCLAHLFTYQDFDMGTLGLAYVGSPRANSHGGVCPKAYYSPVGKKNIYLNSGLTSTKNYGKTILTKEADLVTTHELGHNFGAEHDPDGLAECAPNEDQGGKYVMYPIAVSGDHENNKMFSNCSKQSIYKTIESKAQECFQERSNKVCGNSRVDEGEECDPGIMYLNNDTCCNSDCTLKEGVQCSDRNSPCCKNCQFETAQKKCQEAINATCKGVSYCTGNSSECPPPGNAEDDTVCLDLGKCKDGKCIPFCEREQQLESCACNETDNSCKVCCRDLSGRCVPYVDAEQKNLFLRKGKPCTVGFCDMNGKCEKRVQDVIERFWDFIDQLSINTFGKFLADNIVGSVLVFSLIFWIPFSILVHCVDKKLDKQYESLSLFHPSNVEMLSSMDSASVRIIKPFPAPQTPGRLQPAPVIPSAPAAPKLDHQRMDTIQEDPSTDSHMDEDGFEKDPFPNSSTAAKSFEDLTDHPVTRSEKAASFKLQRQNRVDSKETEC
T4 sequence (P11940 whole entry, the tested form may be a part): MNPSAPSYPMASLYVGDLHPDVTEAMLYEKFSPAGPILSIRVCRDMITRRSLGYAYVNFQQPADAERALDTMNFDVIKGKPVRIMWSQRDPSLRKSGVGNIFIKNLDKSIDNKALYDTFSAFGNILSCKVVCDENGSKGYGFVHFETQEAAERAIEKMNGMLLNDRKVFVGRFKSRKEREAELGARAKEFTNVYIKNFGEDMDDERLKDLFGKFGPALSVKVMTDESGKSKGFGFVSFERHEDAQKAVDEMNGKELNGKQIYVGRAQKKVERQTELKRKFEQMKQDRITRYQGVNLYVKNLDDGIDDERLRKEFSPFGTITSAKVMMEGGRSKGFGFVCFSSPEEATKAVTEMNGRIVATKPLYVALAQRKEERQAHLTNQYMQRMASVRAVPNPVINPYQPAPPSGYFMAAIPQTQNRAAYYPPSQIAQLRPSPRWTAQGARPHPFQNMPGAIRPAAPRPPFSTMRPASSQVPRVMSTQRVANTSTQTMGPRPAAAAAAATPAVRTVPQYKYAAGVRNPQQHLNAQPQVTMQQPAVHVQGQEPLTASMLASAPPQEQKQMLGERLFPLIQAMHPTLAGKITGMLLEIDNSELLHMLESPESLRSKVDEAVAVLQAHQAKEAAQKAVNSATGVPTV
DNA dC->dU-editing enzyme APOBEC-3G, sequence (Q9HC16 whole entry): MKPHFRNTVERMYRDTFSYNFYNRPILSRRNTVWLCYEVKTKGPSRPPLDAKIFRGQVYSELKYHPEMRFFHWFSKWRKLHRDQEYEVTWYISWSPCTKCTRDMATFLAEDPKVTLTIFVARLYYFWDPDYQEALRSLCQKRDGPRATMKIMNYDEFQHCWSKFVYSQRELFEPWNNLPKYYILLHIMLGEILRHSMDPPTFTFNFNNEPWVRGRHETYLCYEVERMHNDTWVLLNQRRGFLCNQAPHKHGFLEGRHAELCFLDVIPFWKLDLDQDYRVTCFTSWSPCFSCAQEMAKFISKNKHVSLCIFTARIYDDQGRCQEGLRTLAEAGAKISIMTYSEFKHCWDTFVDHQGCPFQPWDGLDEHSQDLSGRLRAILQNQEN

## Cc1ccc(/C=C/C(=O)Nc2ccc(Oc3ccccc3)cc2)o1
[1]
  AC50: 5.29 µM (active)
[2]
  IC50: > 69.6 µM (inactive)
[3]
  IC50: > 69.6 µM (inactive)

## CCN(CCNC(=O)C1CCN(Cc2nc(-c3ccc(Cl)cc3)oc2C)CC1)c1ccccc1
[4]
  EC50: > 20 µM (not active)
[5]
  EC50: > 20 µM (not active)
[6]
  EC50: 6.02 µM (active)
[7]
  EC50: 6.26 µM (active)
[8]
  AC50: 4.08 µM (active)

## Cn1c2c(c3ccccc31)CCSC2=O
[9]
  CC50: > 50 µM (active)
Coagulation factor XII
  IC50: > 50 µM (inactive)

## COCCNC(=O)CSc1nnc2c(Cl)cc(Cl)cn12
Coagulation factor XII
  IC50: > 50 µM (inactive)

## Cc1oc2nc(SCC(=O)NCCCO)nc(N)c2c1C
Estrogen receptor beta
  IC50: > 50 µM (not active)

## CC(C)CN(CC(C)C)C1=N/C(=C\c2ccco2)C(=O)N1c1ccccc1
Cytochrome P450 3A4
  AC50: inconclusive

## CCC(C)NCCCCOc1ccc(Cl)cc1C (stereo not given)
[10]
  AC50: > 20 µM (inactive)

## COC(=O)Nc1c(-c2ccccc2)nc2ccc(C)cn12
Estrogen receptor beta
  IC50: > 50 µM (not active)

## COc1ccc(/N=C2\SC(CC(=O)Nc3ccc(F)cc3)C(=O)N2Cc2ccco2)cc1 (stereo not given)
[2]
  IC50: > 69.5 µM (inactive)
[3]
  IC50: > 69.5 µM (inactive)

## COc1ccc(-c2csc(NC(=O)COC(=O)c3ccco3)n2)cc1
[11]
  EC50: > 12 µM (not active)
[12]
  EC50: 35.9 µM (active)
[13]
  EC50: 29 µM (active)
H4
  EC50: 0.188 µM (active)
[14]
  EC50: > 12 µM (not active)
[15]
  EC50: > 12 µM (not active)

## COc1ccc(OC)c(C2CC(=O)N3CN(c4ccccc4)CSC3=C2C#N)c1 (stereo not given)
[16]
  IC50: 6.54 µM (active)
[17]
  IC50: > 50 µM (inactive)
[18]
  IC50: 11.8 µM (active)

## COc1ccc(C2N(c3ccccc3)CCN2c2ccccc2)cc1O
Coagulation factor XII
  IC50: > 50 µM (inactive)

## COc1ccc(-c2ccc(CN3C(C(C)C)C(=O)N(Cc4cn(Cc5ccco5)nn4)CCS3(=O)=O)cc2)cc1OC (stereo not given)
[2]
  IC50: > 69.5 µM (inactive)
[3]
  IC50: > 69.5 µM (inactive)

## COc1ccc2c3nc4ccccc4c-3c(O)oc2c1
[11]
  EC50: > 12 µM (not active)
[19]
  EC50: 7.49 µM (active)
[13]
  EC50: < 0.1 µM (active)
[20]
  EC50: > 79.4 µM (not active)
H4
  EC50: 20.1 µM (inconclusive)
[14]
  EC50: 0.533 µM (active)
[21]
  EC50: 8.33 µM (active)
[15]
  EC50: 0.393 µM (active)

## CCNC(=S)NC(=Nc1nc(C)cc(C)n1)NCc1cccnc1
[16]
  IC50: 9.16 µM (active)
[17]
  IC50: > 50 µM (inactive)
[22]
  IC50: > 66 µM (inactive)
[23]
  IC50: > 66 µM (inactive)

## CC1CCN(C(=O)c2ccc3ccccc3c2)CC1
[11]
  EC50: 1.09 µM (active)
[12]
  EC50: < 0.1 µM (active)
[13]
  EC50: 35 µM (active)
H4
  EC50: > 120 µM (not active)
[14]
  EC50: 10.2 µM (active)
[15]
  EC50: 0.449 µM (active)

## Fc1cc(F)c2nc(N3CCCC3)sc2c1
Coagulation factor XII
  IC50: > 50 µM (inactive)

## COc1ccc(NC(=O)c2oc3ccccc3c2NC(=O)c2ccc(OC)c(OC)c2)c(OC)c1
[4]
  EC50: > 20 µM (not active)
[5]
  EC50: > 20 µM (not active)
